Assay results reported in article PMC8675869, “Oral Efficacy of a Diselenide Compound Loaded in Nanostructured Lipid Carriers in a Murine Model of Visceral Leishmaniasis” (ACS Infectious Diseases, 2021).
≈ marks a conversion by molar mass, not a printed value.

Assays:
[1] = set-up: method as in PMID 25016034; settings: daily oral administration for 90 days; cited from earlier work
[2] = In vitro hepatic microsomal metabolism; assay type: in vitro ADME, BALB/c mice; settings: BALB/c; mouse liver microsomes 0.5 mg protein/mL, 500 μM compound, NADPH, 37 °C; read-out: microsomal stability t1/2 (converted)
Experimental: Liver microsomes were isolated as previously described with minor modifications.[57] Mouse livers were removed and rinsed with 0.9% (w/v) NaCl solution. Then, livers were homogenized in ice-cold 0.25 M sucrose in 0.1 M PBS (pH 7.5). After 20 min of centrifugation at 9000 × g, the supernatant was ultracentrifuged at 100,000 × g for 1 h at 4 °C. The obtained microsome pellet was washed with 0.05 M PBS (pH 7.5) followed by another ultracentrifugation at 100,000 × g for 1 h at 4 °C. Microsomes were resuspended in 20% glycerol–0.1 M PBS and stored at −80 °C until use. Protein concentration was measured by microBCA kit (Thermo Scientific). […] Controls without hepatic cofactor and blanks without compounds were also analyzed. Metabolism was determined at 0, 0.1, 0.25, 0.5, 1, 1.5, and 2 h by the addition of an equal volume of ice-cold ACN, and samples were centrifuged at 9000 × g for 10 min. Supernatants were stored at −20 °C until high liquid performance chromatography (HPLC) quantification analysis at 290 nm, as described in the Supporting Information. Results are expressed as mean ± SD of at least three replicates. […] The rate of microsomal intrinsic clearance (Clint,micr, mL·min^–1·kg^–1) was then calculated following eq 1([27]) [drawing 1] […]
The calculated Clint,micr was used for the prediction of in vivo intrinsic hepatic clearance (Clint) using eq 2 and suitable scaling factors[27] […]

[3] = Solubility in fasted simulated intestinal fluid (FaSSIF); assay type: physicochemical; settings: thermodynamic from solid, fasted simulated intestinal fluid pH 6.5, 4 h, r.t., as Se content, read-out: solubility in SSIF
Experimental: This experiment determines the solubility of a solid compound in fasted simulated intestinal fluid (FaSSIF) at pH 6.5 after 4 h of equilibration at r.t.[58] In brief, 1 mL of FaSSIF (3 mM sodium taurocholate and 0.75 mM lecithin in sodium phosphate buffer at pH 6.5) was added to 2 mg of the solid compounds. The resulting suspensions were shaken at 900 rpm for 4 h at r.t. Then, they were centrifuged at 12,600 × g for 10 min. The amount of selenocompounds, as selenium (Se) content, remaining in the supernatant was quantified by graphite atomic absorption spectrometry, as described in the Supporting Information. Results are expressed as mean ± SD of three replicates.

[4] = Ex vivo intestinal permeability (Ussing chamber); assay type: in vitro ADME, Wistar rats; settings: rat jejunum, mucosal-to-serosal, as Se content; for Papp at 2 h, 5 mM: female, Wistar, rat, pH 7.4, free compounds; for intestinal permeability Papp: free compounds
Experimental: Intestinal permeation experiments were performed by using the Ussing chamber method as previously described.[59] Wistar female rats were fasted for 16 h with free access to water before the experiment. Rats were anesthetized with isoflurane and sacrificed by cervical dislocation. Jejunum was aseptically extracted, excised in 2 cm segments avoiding Peyer’s patches, and placed in cold 0.9% NaCl solution. Jejunum segments were anchored into the Ussing chambers. All experiments were realized from the apical side or donor compartment (DC) to the basolateral or receptor (RC) direction. For 2h and 2m compounds experiments, 5 mL of deionized water at pH 7.4 containing 4% (w/v) D-α-tocopherol polyethylene glycol 1000 succinate, and 5% (w/v) PEG 400 was added to both compartments to ensure sink conditions. In the case of NLC, 5 mL of PBS was used in both compartments. Chambers were continuously oxygenated and maintained at 37 °C. After 10 min of preincubation, the solution in the DC was replaced by 5 mL of either 2h and 2m solutions (final concentration of 5 mM) or their lyophilized NLC diluted in PBS at a 1 mM (in selenocompound concentration). Samples of 500 μL were collected from the RC every 20 min up to 2 h and replaced by an equal volume of the RC solution. Samples were frozen at −20 °C until analysis. The membrane integrity was evaluated by the addition of yellow lucifer to the DC and the determination of its fluorescence at the end of the experiment.[60] Experiments were carried out in triplicate for each compound and formulation. Se content in the RC was analyzed by flame atomic absorption spectrometry, as explained in the Supporting Information. The apparent permeability coefficient per unit membrane surface area (Papp (cm/s)), expressed as mean ± SD, was calculated according to eq 3 [drawing 3] 3 where dQ/dt was the steady-flux (mg/s), C0 was the initial compound concentration in the DC (mg/mL), and A was the surface area of the membrane (cm^2). It has been stablished that, in general, compounds with Papp > 1 × 10^–6 cm/s are well-absorbed in the human intestinal tract whereas Papp < 1 × 10^–6 cm/s are correlated with poor absorption.[32]

[5] = In vitro release from NLC in SGF and SIF; assay type: physicochemical; settings: cumulative Se release
Experimental: The release studies of compounds 2h and 2m were performed at 37 °C using simulated gastric fluid (SGF, pH 1.2, pepsin 0.32% (w/v)) and simulated intestinal fluid (SIF, pH 6.8, pancreatin 1% (w/v)) with 2% v/v PEG 400, 5% w/v D-α-tocopherol polyethylene glycol 1000 succinate and 2.5% v/v DMSO added to ensure sink conditions. The dialysis membranes (with 100 kDa pore size) were filled with 30 mg of lyophilized formulations either 2h-NLC or 2m-NLC (corresponding to around 60 μg of the selenocompounds) dispersed in 1 mL of distilled water. The loaded dialysis membranes were placed into a beaker containing 25 mL of SGF. The simulated fluid was kept under magnetic stirring at 150 rpm, and at fixed times 0.250 mL samples were withdrawn and replaced with an equal volume of SGF. Two hours after the incubation in SGF, the device was transferred to another beaker containing 25 mL of SIF magnetically stirred at 150 rpm. As previously, at fixed times, samples were withdrawn and replaced with free SIF. The in vitro release study finished 24 h after the experiment began. The amount of Se released from the nanocarriers was determined by graphite atomic absorption spectrometry, as described in the Supporting Information. Results are expressed as mean ± SD of at least three replicates.

[6] = Acute toxicity, Up-and-Down procedure (OECD 425), i.p.; settings: mouse, in vivo, ip, 17.5 mg/kg, mice
Experimental: Acute toxicity was carried out following the Up-and-Down procedure proposed by the OECD 425.[61] Three mice were treated with a dose of 17.5 mg/kg of each compound, 2h and 2m, administered by i.p. route. If all the mice died, 1/3 of the dose was administered to other new three mice. If all of them survived, the dose was tripled. If one or two of them died, the same dose was administered to one or two mice more. Both compounds were solubilized in PEG 400:H2O:D-α-tocopherol polyethylene glycol 1000 succinate (60:38.4:1.6, v/v/w).

[7] = test system: Salmonella typhimurium (TA1535/pSK1002 strain); test: SOS/UMU genotoxicity test; assay type: cell-based; settings: with or without metabolic activation, highest concentration 1 mg/mL
Experimental: Salmonella typhimurium (TA1535/pSK1002 strain) (DSMZ, Germany) was employed to determine the genotoxic potential of the compounds 2h and 2m and some of their possible metabolites, as previously described.[56] Bacteria were exposed to different concentrations of compounds either with or without metabolic activation (S9 mix, Mutazyme) to determine the bacterial survival percentage, calculated by measuring the absorbance at 600 nm. Afterward, the β-galactosidase activity was conducted using a colorimetric method employing o-nitrophenyl-β-D-galactopiranoside (ONPG) as a substrate. Genotoxicity activity was measured in terms of β-galactosidase activity calculating an induction factor (IF) relative to the negative control (i.e., bacteria exposed to the solvent) and positive controls (4-nitroquinoline for normal treatments and 2-aminoantracen for S9 metabolic activated treatments). A compound was considered genotoxic for IF values ≥2 at noncytotoxic concentration (i.e., bacterial survival ≥80%). The experiment was considered valid for positive controls if IF ≥ 2.

[8] = Solubilizing capability of Transcutol for the compounds; assay type: physicochemical; settings: Transcutol as solvent
[9] = biological target: trypanothione reductase (TR); set-up: method as in PMID 33046492; settings: concentration that inhibits TR activity by 50%; read-out: TR inhibition IC50; cited from earlier work
THP-1 cells = settings: read-out: THP-1 cells CC50; concentration that kills cells by 50%; cited from earlier work
[10] = cited from earlier work
[11] = Single-dose pharmacokinetic study in mice (plasma Se); settings: BALB/c, mouse, in vivo, ip, 4 mg/kg
Experimental: A single-dose pharmacokinetic study of 2h, 2m, 2h-NLC, and 2m-NLC were evaluated in mice after i.p. (free drugs) or oral administration (free drugs and loaded into NLC). The dose (4 mg/kg) was selected taking into account LD50 obtained after i.p. administration of the compounds. Blood was collected from the submandibular plexus at different time points: 0, 0.25, 0.5, 1, 2, 4, 8, 24, and 48 h. Collected whole blood samples were centrifuged at 3000 × g for 10 min at 4 °C. The obtained plasma samples were stored at −80 °C until quantification of the drug by graphite atomic absorption spectroscopy, as described in the Supporting Information. Experiments were carried out in triplicate for each compound and formulation. Pharmacokinetic parameters were estimated by fitting the experimental data to a noncompartimental model (NCA) using PKsolver Excel program.[62] The analyzed parameters were as follows: Area under concentration–time curve (AUC), maximum serum concentration (Cmax), clearance (Cl), time of maximum concentration (tmax), mean residence time (MRT), and product half-life (t1/2). The extraction rate (ER) was calculated as the ratio between systemic blood clearance and mouse hepatic blood flow (considered 90 mL·min^–1·kg^–1). […]

[12] = set-up: method as in PMID 20643750; settings: mice, administration for 13 weeks; cited from earlier work
[13] = after 4 h of incubation in SIF (following 2 h SGF)
[14] = first 2 h of incubation in SGF, 37 °C, sink conditions

In the case of `CCOCCOCCO` [Transcutol, diethylene glycol monoethyl ether], the “no observed adverse effect level (NOAEL)” value [1] is listed as 850 to 1000 mg/kg/day.
`O=C(Nc1ccc([Se][Se]c2ccc(NC(=O)c3cccc4ccccc34)cc2)cc1)c1cccc2ccccc12` [2m, N,N′-(4,4′-diselanediylbis(4,1-phenylene))bisnaphthamide] gave a half-life at 500 μM [2] of 1.2 h, a solubility at 4 h [3] of 2.5 ± 0.5 µg/mL (≈ 3.84 µM) and a Papp at 2 h, 5 mM [4] of ~0.591 ×10⁻⁶ cm/s. The “intestinal permeability Papp” value [4] was 5.9 ± 1.1 (×10^–7) cm/s, the “compound released from NLC” value [5, 13] was ~10% and the “compound released from NLC” value [5, 14] was 3.9 ± 0.3%. For the same molecule, the LD50 [6] was 17.5 mg/kg, the “genotoxicity (SOS/UMU test)” value [7] was “did not produce cytotoxicity and DNA damage” and the “amount of compound dissolved in Transcutol” value [8] was “up to 6 mg of compound in 0.4 g”. The IC50 [9] was 5.5 ± 0.1 µM, the CC50 (THP-1 cells) was > 50 µM and the logP [10] was 5.
`O=C(Nc1ccc([Se][Se]c2ccc(NC(=O)c3ccco3)cc2)cc1)c1ccco1` [2h, N,N′-(4,4′-diselanediylbis(4,1-phenylene))bis-furan-2-carboxamide] showed a half-life at 500 μM [2] of 1.7 h, a solubility at 4 h [3] of 3.2 ± 1.7 µg/mL (≈ 6.03 µM) and a Papp at 2 h, 5 mM [4] of ~0.717 ×10⁻⁶ cm/s. For the same molecule, the “intestinal permeability Papp” value [4] was 7.2 ± 2.6 (×10^–7) cm/s, the “compound released from NLC” value [5, 13] was “around 13%” and the “compound released from NLC” value [5, 14] was 5.5 ± 3.1%. The “ER (extraction ratio)” value [11] was <0.3, the LD50 [6] was 17.5 mg/kg and the “genotoxicity (SOS/UMU test)” value [7] was “did not produce cytotoxicity and DNA damage”. The “amount of compound dissolved in Transcutol” value [8] was “up to 6 mg of compound in 0.4 g”, the IC50 [9] was 14 ± 0.9 µM and the CC50 (THP-1 cells) was > 50 µM. For the same molecule, the logP [10] was 1.
In the case of Polysorbate 80 [Tween 80], the NOAEL [12] is given as 10 g/kg/day.
